Assay [1] in a line: Binding affinity to poly(dG-dC).poly(dG-dC) DNA (unknown origin) in CP buffer at pH 7.0 at 3 to 24 uM by CD spectroscopy.
A short description of assay [2]: Binding affinity to poly(dA-dT).poly(dA-dT) DNA (unknown origin) in CP buffer at pH 7.0 at 3 to 24 uM by CD spectroscopy.
For another assay, the system named is DNA. The experiment in a line: Binding affinity to calf thymus DNA in CP buffer at pH 7.0 at 3 to 24 uM by CD spectroscopy. In kind it is nucleic-acid assay. The following applies: Bos taurus.
Assay [3] can be described thus: Binding affinity to duplex DNA (unknown origin) assessed as change in melting temperature.

The source made the active and inactive calls. The rule behind the calls is not given here.

Turning to `COc1ccc2c(CCCCC(c3ccccc3)c3ccccc3)c3[n+](cc2c1OC)CCc1cc2c(cc1-3)OCO2`, the outcome (in assay [1]; in assay [2]; in the assay with DNA) was Active. Moreover, the ΔTm in assay [3] was 17 °C.
In the case of `COc1ccc2c(CCCCCC(c3ccccc3)c3ccccc3)c3[n+](cc2c1OC)CCc1cc2c(cc1-3)OCO2`, the outcome (in assay [1]; in assay [2]; in the assay on DNA) was Active. Also, in assay [3], the thermal shift (ΔTm) was found to be 16.6 °C.
On to `COc1ccc2c(C(c3ccccc3)c3ccccc3)c3[n+](cc2c1OC)CCc1cc2c(cc1-3)OCO2`, for which the outcome (in assay [1]; in assay [2]; in the assay on DNA) was Active. Besides, the ΔTm in assay [3] came to 6 °C.
As for `COc1ccc2c(CC(c3ccccc3)c3ccccc3)c3[n+](cc2c1OC)CCc1cc2c(cc1-3)OCO2`, the result (in assay [1]; in assay [2]; in the assay on DNA) was Active. Moreover, in assay [3], the ΔTm is 7 °C.
For `COc1ccc2c(CCC(c3ccccc3)c3ccccc3)c3[n+](cc2c1OC)CCc1cc2c(cc1-3)OCO2`, the outcome (in assay [1]; in assay [2]; in the assay on DNA) was Active. Besides, in assay [3], the thermal shift (ΔTm) was determined as 16 °C.
Turning to `COc1ccc2cc3[n+](cc2c1OC)CCc1cc2c(cc1-3)OCO2`, the thermal shift (ΔTm) in assay [3] was determined as 13 °C.
On to `COc1ccc2c(CCCC(c3ccccc3)c3ccccc3)c3[n+](cc2c1OC)CCc1cc2c(cc1-3)OCO2`, for which the outcome (in assay [1]; in assay [2]; with DNA) was Active. The shift in melting temperature (ΔTm) in assay [3] stood at 19 °C.

Broadly, the ΔTm is the change in melting temperature against a reference sample.
